Test results from PMC4749168, “Potentiation of ΔF508- and G551D-CFTR-Mediated Cl^- Current by Novel Hydroxypyrazolines” (PLoS ONE, 2016).

Key:
Type in all cases: cell-based
WT-CFTR = molecular target: T1, WT-CFTR (Homo sapiens, UniProt P13569); assay: Halide-sensitive YFP microplate reader assay of CFTR potentiation, WT-CFTR; settings: FRT cells, 0.1 μM forskolin
T1 construct: expressed in transfected cells; host or cells: Fisher rat thyroid (FRT) cells, co-expressing halide sensor YFP-H148Q/I152L; provided by Dr. Alan Verkman
Experimental: FRT cells expressing wild type- or ΔF508-CFTR with the halide sensor YFP-H148Q/I152L were plated in 96-well black-walled microplates (Corning Inc., Corning, NY) at a density of 2 x10^4cells per well. FRT-WT-CFTR-YFP cells were incubated for 48 h at 37°C, and FRT-ΔF508-CFTR-YFP cells were incubated for 24 h at 27°C after 24 h incubation at 37°C to rescue ΔF508-CFTR localization. Assays were done using FLUO star Omega microplate reader (BMG Labtech, Ortenberg, Germany) and MARS Data Analysis Software (BMG Labtech). Each well of a 96-well plate was washed 3 times in PBS (200 μL/wash). 100 μL PBS was added to each well. Forskolin (0.1 and 10 μM for WT- and ΔF508-CFTR, respectively) and test compounds (1 μL) were added to each well. After 10 min, 96-well plates were transferred to the microplate reader preheated to 37°C for fluorescence assay. Each well was assayed individually for CFTR-mediated I^- influx by recording fluorescence continuously (200 ms per point) for 2 s (baseline), then 100 μL of 140 mM I^- solution was added at 2 s and then YFP fluorescence was recorded for 14 s. Initial iodide influx rate was determined from the initial slope of fluorescence decrease, by nonlinear regression, following infusion of iodide.

G551D-CFTR = molecular target: T2, G551D-CFTR (Homo sapiens, UniProt P13569, G551D); assay: Apical membrane current (Ussing chamber) in FRT cells expressing G551D-CFTR
T2 construct: expressed in transfected cells; host or cells: Fisher rat thyroid (FRT) cells; provided by Dr. Alan Verkman
T2 sequence (P13569 whole entry G551D): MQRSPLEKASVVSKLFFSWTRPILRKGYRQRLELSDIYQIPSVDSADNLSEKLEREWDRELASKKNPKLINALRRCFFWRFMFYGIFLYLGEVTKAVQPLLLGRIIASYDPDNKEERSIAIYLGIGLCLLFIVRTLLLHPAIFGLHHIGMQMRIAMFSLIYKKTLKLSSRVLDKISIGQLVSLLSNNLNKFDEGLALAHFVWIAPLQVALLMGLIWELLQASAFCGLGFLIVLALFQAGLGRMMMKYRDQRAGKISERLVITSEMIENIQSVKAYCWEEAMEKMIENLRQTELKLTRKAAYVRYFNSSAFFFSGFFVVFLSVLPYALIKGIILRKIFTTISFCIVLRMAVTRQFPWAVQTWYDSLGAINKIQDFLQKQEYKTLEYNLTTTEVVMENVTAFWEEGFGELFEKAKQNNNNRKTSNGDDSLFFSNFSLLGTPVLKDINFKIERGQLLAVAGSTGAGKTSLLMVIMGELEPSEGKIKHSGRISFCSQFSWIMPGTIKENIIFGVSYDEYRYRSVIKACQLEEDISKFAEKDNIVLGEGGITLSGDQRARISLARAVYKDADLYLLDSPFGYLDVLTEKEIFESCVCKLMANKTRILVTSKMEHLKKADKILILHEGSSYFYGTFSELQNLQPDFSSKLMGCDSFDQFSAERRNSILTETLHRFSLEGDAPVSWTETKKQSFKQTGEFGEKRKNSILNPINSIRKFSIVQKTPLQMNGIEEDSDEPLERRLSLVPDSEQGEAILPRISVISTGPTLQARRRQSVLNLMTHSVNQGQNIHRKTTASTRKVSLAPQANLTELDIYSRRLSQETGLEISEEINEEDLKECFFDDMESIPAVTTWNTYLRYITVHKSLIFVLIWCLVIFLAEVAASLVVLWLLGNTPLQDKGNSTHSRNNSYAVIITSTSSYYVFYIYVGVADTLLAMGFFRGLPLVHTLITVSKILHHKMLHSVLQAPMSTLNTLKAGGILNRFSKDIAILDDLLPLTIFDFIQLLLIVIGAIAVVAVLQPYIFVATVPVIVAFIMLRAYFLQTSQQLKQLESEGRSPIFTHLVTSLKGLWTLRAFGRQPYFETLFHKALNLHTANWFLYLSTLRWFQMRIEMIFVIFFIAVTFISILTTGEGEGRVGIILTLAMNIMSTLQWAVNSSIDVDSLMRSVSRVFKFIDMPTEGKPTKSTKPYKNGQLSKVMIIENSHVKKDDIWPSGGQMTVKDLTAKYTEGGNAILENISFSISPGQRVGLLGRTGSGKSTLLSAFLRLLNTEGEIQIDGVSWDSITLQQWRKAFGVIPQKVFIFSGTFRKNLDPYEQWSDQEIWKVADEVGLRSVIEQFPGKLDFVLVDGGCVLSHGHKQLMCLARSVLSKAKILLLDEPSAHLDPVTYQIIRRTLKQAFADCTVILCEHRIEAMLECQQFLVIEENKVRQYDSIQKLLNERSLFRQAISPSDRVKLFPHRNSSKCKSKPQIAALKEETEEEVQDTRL
Experimental: Snapwell inserts containing CFTR-expressing FRT and primary culture of human nasal epithelial cells were mounted in Ussing chambers (Physiologic Instruments, San Diego, CA). […] For FRT cells, the apical bath was filled with a half-Cl^- solution and the basolateral bath was filled with HCO3^—buffered solution, and the basolateral membrane was permeabilized with 250 μg/mL amphotericin B. For primary cultures of human nasal epithelial cells, symmetrical HCO3^—buffered solutions were used and ENaC was inhibited by pre-treatment with amiloride (100 μM). […] Apical membrane current and short-circuit current were measured with an EVC4000 Multi-Channel V/I Clamp (World Precision Instruments, Sarasota, FL) and recorded using PowerLab 4/35 (AD Instruments, Castle Hill, Australia). Data were collected and analyzed with ADInstruments acquisition software Labchart Pro 7 software. The sampling rate was 4 Hz.

CFTR = molecular target: T3, CFTR (Homo sapiens, UniProt P13569); assay: Short-circuit current in primary cultures of normal human nasal epithelial cells; settings: 0.5 μM forskolin, amiloride pretreatment
T3 construct: endogenous in cells; host or cells: primary cultures of normal human nasal epithelial cells (provided by Dr. Jaeyoung Choi), passage 2, air-liquid interface
T3 sequence (P13569 whole entry): as the sequence (P13569 whole entry G551D) above, with D551G counted along it
Experimental: (§1) Snapwell inserts containing CFTR-expressing FRT and primary culture of human nasal epithelial cells were mounted in Ussing chambers (Physiologic Instruments, San Diego, CA). Forskolin, genistein, CP7q and CFTRinh-172 were added to the apical and basolateral bath solution. For FRT cells, the apical bath was filled with a half-Cl^- solution and the basolateral bath was filled with HCO3^—buffered solution, and the basolateral membrane was permeabilized with 250 μg/mL amphotericin B. For primary cultures of human nasal epithelial cells, symmetrical HCO3^—buffered solutions were used and ENaC was inhibited by pre-treatment with amiloride (100 μM). All cells were bathed for a 20 min stabilization period and aerated with 95% O2 / 5% CO2 at 37°C. Apical membrane current and short-circuit current were measured with an EVC4000 Multi-Channel V/I Clamp (World Precision Instruments, Sarasota, FL) and recorded using PowerLab 4/35 (AD Instruments, Castle Hill, Australia). Data were collected and analyzed with ADInstruments acquisition software Labchart Pro 7 software. The sampling rate was 4 Hz.

ΔF508-CFTR [1] = molecular target: T4, ΔF508-CFTR (Homo sapiens, UniProt P13569, DEL508-508); assay: YFP quenching assay of VX-809-mediated rescue in A549 cells expressing ΔF508-CFTR; parameters: expressed in transfected cells; host or cells: Fisher rat thyroid (FRT) cells, co-expressing halide sensor YFP-H148Q/I152L; provided by Dr. Alan Verkman; settings: 48 h, combined with 5 μM VX-809, 10 μM CP7q or 5 μM VX-770, vs VX-809 alone
T4 sequence (P13569 with tags, fused parts or gaps DEL508-508): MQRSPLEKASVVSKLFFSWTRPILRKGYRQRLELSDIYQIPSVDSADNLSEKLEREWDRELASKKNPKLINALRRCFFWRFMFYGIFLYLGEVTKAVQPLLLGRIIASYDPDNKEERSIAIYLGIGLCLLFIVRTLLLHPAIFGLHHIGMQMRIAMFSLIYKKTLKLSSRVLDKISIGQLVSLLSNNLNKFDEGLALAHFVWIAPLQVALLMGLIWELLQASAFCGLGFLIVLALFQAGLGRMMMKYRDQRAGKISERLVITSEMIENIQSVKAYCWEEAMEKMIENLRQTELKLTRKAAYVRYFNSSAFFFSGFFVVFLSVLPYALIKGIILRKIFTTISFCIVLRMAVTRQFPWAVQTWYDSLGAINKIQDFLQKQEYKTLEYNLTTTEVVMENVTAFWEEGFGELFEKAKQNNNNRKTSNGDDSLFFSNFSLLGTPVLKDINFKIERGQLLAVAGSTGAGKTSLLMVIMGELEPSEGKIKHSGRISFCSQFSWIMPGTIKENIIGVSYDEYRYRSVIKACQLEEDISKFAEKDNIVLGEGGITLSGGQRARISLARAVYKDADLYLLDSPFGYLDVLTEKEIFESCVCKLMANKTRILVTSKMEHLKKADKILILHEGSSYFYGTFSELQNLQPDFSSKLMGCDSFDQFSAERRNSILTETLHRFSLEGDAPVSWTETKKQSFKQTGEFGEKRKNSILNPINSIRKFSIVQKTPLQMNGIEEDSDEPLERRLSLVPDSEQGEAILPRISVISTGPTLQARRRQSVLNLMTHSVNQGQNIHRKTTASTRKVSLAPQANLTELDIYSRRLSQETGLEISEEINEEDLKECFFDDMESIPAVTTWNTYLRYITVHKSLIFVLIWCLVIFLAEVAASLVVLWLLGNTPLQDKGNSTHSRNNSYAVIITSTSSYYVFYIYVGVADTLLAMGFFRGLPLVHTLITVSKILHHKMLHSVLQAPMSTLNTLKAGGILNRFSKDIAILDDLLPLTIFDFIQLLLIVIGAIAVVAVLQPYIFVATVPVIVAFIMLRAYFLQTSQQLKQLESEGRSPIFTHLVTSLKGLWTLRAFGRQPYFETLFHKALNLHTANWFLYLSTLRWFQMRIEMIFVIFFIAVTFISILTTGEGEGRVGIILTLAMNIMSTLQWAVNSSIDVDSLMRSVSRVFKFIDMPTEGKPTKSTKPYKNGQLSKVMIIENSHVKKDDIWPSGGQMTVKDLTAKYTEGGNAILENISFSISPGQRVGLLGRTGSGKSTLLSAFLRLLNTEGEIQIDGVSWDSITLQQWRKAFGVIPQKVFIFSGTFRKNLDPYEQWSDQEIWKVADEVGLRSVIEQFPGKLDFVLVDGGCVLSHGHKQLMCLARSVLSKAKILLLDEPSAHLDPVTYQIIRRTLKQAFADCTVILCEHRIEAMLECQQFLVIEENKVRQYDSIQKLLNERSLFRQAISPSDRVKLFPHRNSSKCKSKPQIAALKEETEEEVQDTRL
Experimental: Fisher rat thyroid (FRT) cells expressing human wild type-, ΔF508- and G551D-CFTR with a halide sensor YFP-H148Q/I152L were generously provided by Dr. Alan Verkman (University of California, San Francisco) and grown in F-12 Modified Coon´s medium supplemented with 10% FBS, 2 mM glutamine, 100 units/ml penicillin and 100 μg/ml streptomycin [30]. A549 cells were obtained from Korean Cell Line Bank (Seoul, Korea) and the cells were stably transfected with human ΔF508-CFTR and the halide sensor YFP-H148Q/I152L/F46L, and maintained in RPMI-1640 medium containing 10% fetal bovine serum (FBS), 100 units/ml penicillin and 100 μg/ml streptomycin. […]
FRT cells expressing wild type- or ΔF508-CFTR with the halide sensor YFP-H148Q/I152L were plated in 96-well black-walled microplates (Corning Inc., Corning, NY) at a density of 2 x10^4cells per well. […] Assays were done using FLUO star Omega microplate reader (BMG Labtech, Ortenberg, Germany) and MARS Data Analysis Software (BMG Labtech). […] After 10 min, 96-well plates were transferred to the microplate reader preheated to 37°C for fluorescence assay. Each well was assayed individually for CFTR-mediated I^- influx by recording fluorescence continuously (200 ms per point) for 2 s (baseline), then 100 μL of 140 mM I^- solution was added at 2 s and then YFP fluorescence was recorded for 14 s. […]

ΔF508-CFTR [2] = molecular target: T4, ΔF508-CFTR; assay: Apical membrane current of VX-809-rescued ΔF508-CFTR in FRT cells; parameters: expressed in transfected cells; host or cells: Fisher rat thyroid (FRT) cells, co-expressing halide sensor YFP-H148Q/I152L; provided by Dr. Alan Verkman; settings: 48 h, combined with 5 μM VX-809, 10 μM CP7q or 5 μM VX-770
Experimental: as §1

For `COc1ccc(C2CC(c3ccc(O)cc3O)=NN2c2ccc(S(N)(=O)=O)cc2)c(OC)c1` (centres unmarked) [Compound 7q, 4-[3-(2,4-dihydroxyphenyl)-5-(2,4-dimethoxyphenyl)-4,5-dihydro-1H-pyrazol-1-yl] benzenesulfonamide], the EC50 (WT-CFTR) was 0.9 µM, the “Potentiation of G551D-CFTR Cl- current compared with VX-770” value (G551D-CFTR; 20 μM forskolin, 30 μM CP7q vs 10 μM VX-770) was “comparable to VX-770” and the “Potentiation of G551D-CFTR Cl- current relative to genistein” value (G551D-CFTR; 20 μM forskolin, 30 μM CP7q vs 50 μM genistein) was 1.9 times. The “Potentiation of G551D-CFTR Cl- current” value (G551D-CFTR; 20 μM forskolin, 50 μM genistein, 10 μM VX-770, CP7q) was “significantly potentiated”, the “Maximal potentiation of G551D-CFTR chloride conductance relative to genistein” value (G551D-CFTR; higher than genistein) was 1.9 fold and the “Potentiation of CFTR Cl- current (short-circuit current)” value (CFTR) was “remarkably potentiated”. The “Effect on functional rescue of ΔF508-CFTR by VX-809 (iodide influx)” value (ΔF508-CFTR [1]) was “significantly increased” and the “Effect on apical membrane current of VX-809-rescued ΔF508-CFTR” value (ΔF508-CFTR [2]) was “strongly increased”.
